Laboratory results reported in article PMC9404513 (ACS Omega, 2022).

Legend:
[1] = Solubility in organic solvents; format: physicochemical; conditions: solvents in which the compound is soluble
MAO-B = target: T1, MAO-B (Homo sapiens, UniProt P27338); assay: Monoamine oxidase B inhibition; format: biochemical
T1 sequence (P27338 1-520): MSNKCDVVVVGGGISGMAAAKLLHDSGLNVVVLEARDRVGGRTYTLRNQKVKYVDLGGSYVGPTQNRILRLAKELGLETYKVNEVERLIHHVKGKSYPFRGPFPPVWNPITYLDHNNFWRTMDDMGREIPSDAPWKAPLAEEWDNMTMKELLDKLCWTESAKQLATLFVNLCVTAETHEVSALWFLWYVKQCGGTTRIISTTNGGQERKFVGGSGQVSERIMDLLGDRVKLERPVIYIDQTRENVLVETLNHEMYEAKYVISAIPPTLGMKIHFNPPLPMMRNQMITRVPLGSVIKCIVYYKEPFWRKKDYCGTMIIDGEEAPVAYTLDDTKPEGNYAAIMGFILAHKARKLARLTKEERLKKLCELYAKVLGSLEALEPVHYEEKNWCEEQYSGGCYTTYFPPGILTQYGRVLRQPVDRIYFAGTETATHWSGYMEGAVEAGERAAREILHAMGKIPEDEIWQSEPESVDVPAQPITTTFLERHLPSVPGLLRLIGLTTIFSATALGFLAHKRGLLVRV

MAO-A = target: T2, MAO-A (Homo sapiens, UniProt P21397); assay: Monoamine oxidase A inhibition; format: biochemical
T2 sequence (P21397 1-527): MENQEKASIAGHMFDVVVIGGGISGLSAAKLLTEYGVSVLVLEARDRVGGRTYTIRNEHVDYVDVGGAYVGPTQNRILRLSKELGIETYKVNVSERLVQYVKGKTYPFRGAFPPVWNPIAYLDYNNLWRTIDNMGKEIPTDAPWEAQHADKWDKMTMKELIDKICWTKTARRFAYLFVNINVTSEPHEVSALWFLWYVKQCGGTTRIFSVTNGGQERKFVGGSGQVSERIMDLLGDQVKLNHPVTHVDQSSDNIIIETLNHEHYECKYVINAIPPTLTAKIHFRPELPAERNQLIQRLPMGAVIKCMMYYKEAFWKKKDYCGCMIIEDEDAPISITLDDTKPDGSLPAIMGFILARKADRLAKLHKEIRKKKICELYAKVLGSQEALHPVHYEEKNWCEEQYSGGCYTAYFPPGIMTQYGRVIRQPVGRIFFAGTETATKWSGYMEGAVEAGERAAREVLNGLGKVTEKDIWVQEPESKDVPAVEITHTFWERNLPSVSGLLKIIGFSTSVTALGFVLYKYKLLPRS

- IC50 (MAO-B): 1020 ± 110 nM
- IC50 (MAO-A): 520 ± 30 nM
Structure (SMILES): CCOC(=O)C1=C(Nc2ccc(F)cc2)CC(c2ccc(C(F)(F)F)cc2)N(c2ccc(F)cc2)C1c1ccc(C(F)(F)F)cc1 (stereo not drawn) [FTEAA, Ethyl 4-(4-fluorophenylamino)-2,6-bis(4-(trifluoromethyl)phenyl)-1-(4-fluoro-phenyl)-1,2,5,6-tetrahydropyridine-3-carboxylate]
- solubility [1]: acetone, chloroform, dichloromethane, ethyl acetate and ethanol
